For this assay, the target named is T1, mouse TRPM3a2 (mTRPM3) ion channel (Mus musculus, UniProt J9SQF3).
T1 construct: expressed in transfected cells; host or cells: flip-in HEK293
The assay can be described thus: TRPM3 ion channel driven Ca2+ uptake, Fluo-4 AM assay (PS-stimulated, overexpressing flip-in HEK293 cells). Type of assay: cell-based. Particulars: PS (50 μM) stimulated. How it is done:
In order to monitor the inhibition of the mouse TRPM3a2 (mTRPM3) ion channel by the compounds of the invention, a cellular system making use of an mTRPM3alpha2 or hTRPM3 overexpressing cell line (flip-in HEK293) was used. The TRPM3 channel was stimulated/opened with Pregnenolone sulfate (PS) (50 μM) which results in Ca^2+ influx.
For mTRPM3, the intracellular Ca^2+ was measured with a Calcium responsive dye, Fluor-4 AM ester (Invitrogen). Cells were cultured until a confluence of 80-90%, washed with Versene (Invitrogen) and detached from the surface by a short incubation with 0.05% Trypsin (Invitrogen). The trypsination process was stopped by the addition of complete cell culture medium (DMEM, glutamax, 10% FCS, NEAA, Pen-Strep). Cells were collected and resuspended in Krebs buffer without Calcium at RT.
Prior the cell seeding (±2000 cells/well into a black, 384 well plate (Greiner)) the diluted compound was added in the assay plate, together with the PS dissolved in Krebs buffer containing Calcium. […] Directly after cell addition the plates were read on an Envision fluorescence reader (Perkin Elmer) by an Excitation of 485 nm and emission at 535 nm.
Channel inhibition was calculated compared to a non-PS stimulated control versus a condition stimulated with PS (50 μM) with vehicle. The ability of the compounds of the invention to inhibit this activity was determined as: Percentage inhibition=[1-((RFU determined for sample with test compound present—RFU determined for sample with positive control inhibitor) divided by (RFU determined in the presence of vehicle—RFU determined for sample with positive control inhibitor))]*100.

Data on 43 compounds can be found in patent US20240336602A1 (Katholieke Universiteit Leuven, priority 2020, published 2024).

T1 sequence (J9SQF3 1-1709 isoform J9SQF3-12): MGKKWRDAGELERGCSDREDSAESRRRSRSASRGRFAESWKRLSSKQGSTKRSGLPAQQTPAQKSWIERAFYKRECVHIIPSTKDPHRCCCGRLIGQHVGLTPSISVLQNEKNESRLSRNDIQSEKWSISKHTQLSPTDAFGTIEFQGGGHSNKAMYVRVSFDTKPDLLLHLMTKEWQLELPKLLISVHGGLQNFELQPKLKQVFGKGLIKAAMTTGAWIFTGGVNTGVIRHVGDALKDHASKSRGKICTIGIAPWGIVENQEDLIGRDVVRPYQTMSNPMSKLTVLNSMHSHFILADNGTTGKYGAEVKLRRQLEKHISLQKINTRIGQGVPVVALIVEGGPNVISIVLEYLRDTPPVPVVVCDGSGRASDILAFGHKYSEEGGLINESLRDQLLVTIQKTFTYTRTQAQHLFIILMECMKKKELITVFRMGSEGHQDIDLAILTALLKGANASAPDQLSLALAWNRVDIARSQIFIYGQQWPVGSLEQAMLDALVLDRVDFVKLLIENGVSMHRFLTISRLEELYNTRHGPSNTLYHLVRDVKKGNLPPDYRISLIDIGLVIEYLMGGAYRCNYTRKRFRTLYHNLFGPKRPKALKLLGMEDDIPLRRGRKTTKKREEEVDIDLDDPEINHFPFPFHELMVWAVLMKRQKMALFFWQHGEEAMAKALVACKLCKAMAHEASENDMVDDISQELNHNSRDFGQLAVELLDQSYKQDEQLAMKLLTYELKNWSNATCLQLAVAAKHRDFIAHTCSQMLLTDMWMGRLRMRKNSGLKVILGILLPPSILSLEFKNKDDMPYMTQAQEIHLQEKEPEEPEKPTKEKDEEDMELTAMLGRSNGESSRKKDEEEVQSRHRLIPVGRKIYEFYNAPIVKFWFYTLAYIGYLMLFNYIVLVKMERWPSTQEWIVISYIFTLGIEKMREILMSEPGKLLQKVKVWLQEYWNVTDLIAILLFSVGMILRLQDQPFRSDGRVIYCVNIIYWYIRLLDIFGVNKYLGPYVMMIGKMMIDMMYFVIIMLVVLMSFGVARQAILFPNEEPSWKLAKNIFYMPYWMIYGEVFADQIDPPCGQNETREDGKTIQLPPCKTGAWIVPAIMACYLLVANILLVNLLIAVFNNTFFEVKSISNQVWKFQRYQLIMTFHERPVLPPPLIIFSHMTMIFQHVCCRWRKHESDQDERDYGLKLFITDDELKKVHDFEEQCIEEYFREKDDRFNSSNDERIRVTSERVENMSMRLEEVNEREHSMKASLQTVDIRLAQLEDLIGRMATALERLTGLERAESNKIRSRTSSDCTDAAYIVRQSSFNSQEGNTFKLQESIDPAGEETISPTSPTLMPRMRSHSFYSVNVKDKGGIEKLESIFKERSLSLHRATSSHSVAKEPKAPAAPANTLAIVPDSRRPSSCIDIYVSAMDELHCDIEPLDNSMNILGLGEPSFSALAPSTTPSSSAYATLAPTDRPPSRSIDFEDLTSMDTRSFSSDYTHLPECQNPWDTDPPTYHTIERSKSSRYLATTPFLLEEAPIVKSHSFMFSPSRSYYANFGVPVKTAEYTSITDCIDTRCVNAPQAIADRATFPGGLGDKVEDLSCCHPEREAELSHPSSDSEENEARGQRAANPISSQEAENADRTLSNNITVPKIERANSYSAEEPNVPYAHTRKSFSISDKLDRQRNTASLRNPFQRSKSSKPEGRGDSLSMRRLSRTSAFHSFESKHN

As to `COc1ncccc1COc1ccc2oc(C)c(C(=O)NC3CCN(CCO)C3=O)c2c1` (single isomer, unassigned) [409 - En 1], the IC50 (cpds. 400-499) was no more than 1000 nM.

As for `Cc1ncsc1COc1ccc2oc(C)c(C(=O)NC3(C)CCN(CCO)C3=O)c2c1` (single isomer, unassigned) [410 - En 1], for the setting “cpds. 400-499”, the IC50 is no more than 1000 nM.

As for `Cc1ncsc1COc1ccc2oc(C)c(C(=O)NC3(C)CCN(CCO)C3=O)c2c1` (single isomer, unassigned) [410 - En 2], the IC50 (cpds. 400-499) was in the range of 1000 to 20000 nM.

Consider `Cc1ncsc1COc1ccc2oc(C)c(C(=O)NC(CO)C(=O)N(C)C)c2c1` (single isomer, unassigned) [411 - En 1], for which, where the note is “cpds. 400-499”, the IC50 is no more than 1000 nM.

Where the note is “cpds. 400-499”, `Cc1ncc(COc2ccc3oc(C)c(C(=O)NC(CO)CN(C)C)c3c2)s1` (single isomer, unassigned) [412 - En 1] displayed an IC50 of no more than 1000 nM.

Turning to `Cc1oc2ccc(OCc3ccnn3C)cc2c1C(=O)NC(C)C(N)=O` (single isomer, unassigned) [433 - En 1], the IC50 (cpds. 400-499) was no more than 1000 nM.

For the compound `Cc1oc2ccc(OCc3cccnc3O)cc2c1C(=O)NC(C)C(N)=O` (single isomer, unassigned) [436 - En 1], the IC50 (cpds. 400-499) was no more than 1000 nM.

Where the note is “cpds. 400-499”, `COc1ncccc1COc1ccc2oc(C)c(C(=O)NC(C)C(N)=O)c2c1` (single isomer, unassigned) [437 - En 1] showed an IC50 of no more than 1000 nM.

For the compound `Cc1ncc(COc2ccc3oc(C)c(C(=O)NC(CN(C)C4CC4)C(N)=O)c3c2)s1` (single isomer, unassigned) [445 - En 1], the IC50 (cpds. 400-499) is no more than 1000 nM.

Turning to `Cc1ncc(COc2ccc3oc(C)c(C(=O)NC(CN(C)C4CC4)C(N)=O)c3c2)s1` (single isomer, unassigned) [445 - En 2], the IC50 (cpds. 400-499) was in the range of 1000 to 20000 nM.

On to `Cc1ncsc1COc1ccc2oc(C)c(C(=O)NC(CN(C)C3CC3)C(N)=O)c2c1` (single isomer, unassigned) [446 - En 1], for which, under “cpds. 400-499”, the IC50 was no more than 1000 nM.

With `Cc1ncsc1COc1ccc2oc(C)c(C(=O)NC(CN(C)C3CC3)C(N)=O)c2c1` (single isomer, unassigned) [446 - En 2], under “cpds. 400-499”, the IC50 fell in the range of 1000 to 20000 nM.

Where the note is “cpds. 400-499”, `Cc1ncc(COc2ccc3oc(C)c(C(=O)NC(CN(C)C)C(N)=O)c3c2)s1` (single isomer, unassigned) [449 - En 1] returned an IC50 of no more than 1000 nM.

On to `Cc1ncsc1COc1ccc2oc(C)c(C(=O)NC(CN(C)C)C(N)=O)c2c1` (single isomer, unassigned) [450 - En 1], for which, for the setting “cpds. 400-499”, the IC50 is no more than 1000 nM.

With `Cc1oc2ccc(OCc3nccn3C)cc2c1C(=O)NC(CO)C(N)=O` (single isomer, unassigned) [451 - En 1], under “cpds. 400-499”, the IC50 was no more than 1000 nM.

As to `Cc1oc2ccc(OCc3nccn3C)cc2c1C(=O)NC(CO)C(N)=O` (single isomer, unassigned) [451 - En 2], the IC50 (cpds. 400-499) lay in the range of 1000 to 20000 nM.

Compound `Cc1oc2ccc(OCc3ccnn3C)cc2c1C(=O)NC(CO)C(N)=O` (single isomer, unassigned) [452 - En 1] yielded a half-inhibitory concentration (IC50) (cpds. 400-499) of no more than 1000 nM.

In turn, `Cc1oc2ccc(OCc3ccnn3CC(F)F)cc2c1C(=O)NC(CO)C(N)=O` (single isomer, unassigned) [456 - En 1] registered an IC50 (cpds. 400-499) of no more than 1000 nM.

Consider `Cc1oc2ccc(OCc3cccnc3C(F)F)cc2c1C(=O)NC(CO)C(N)=O` (single isomer, unassigned) [457 - En 1], for which, for the setting “cpds. 400-499”, the IC50 is no more than 1000 nM.

Turning to `Cc1nc(C)c(COc2ccc3oc(C)c(C(=O)NC(CO)C(N)=O)c3c2)s1` (single isomer, unassigned) [458 - En 1], the IC50 (cpds. 400-499) is no more than 1000 nM.

In turn, `Cc1oc2ccc(OCc3cccnc3O)cc2c1C(=O)NC(CO)C(N)=O` (single isomer, unassigned) [459 - En 1] gave an IC50 (cpds. 400-499) of no more than 1000 nM.

With `Cc1ncccc1COc1ccc2oc(C)c(C(=O)NC(C)(CO)C(N)=O)c2c1` (single isomer, unassigned) [461 - En 1], the IC50 (cpds. 400-499) is no more than 1000 nM.

Consider `Cc1ncc(COc2ccc3oc(C)c(C(=O)NC(C)(CO)C(N)=O)c3c2)s1` (single isomer, unassigned) [462 - En 1], for which the IC50 (cpds. 400-499) was no more than 1000 nM.

As for `Cc1ncsc1COc1ccc2oc(C)c(C(=O)NC(C)(CO)C(N)=O)c2c1` (single isomer, unassigned) [463 - En 2], where the note is “cpds. 400-499”, the IC50 was no more than 1000 nM.

Turning to `Cc1ccc(COc2ccc3oc(C)c(C(=O)NC(C)(CO)C(N)=O)c3c2)cn1` (single isomer, unassigned) [464 - En 1], for the setting “cpds. 400-499”, the IC50 is no more than 1000 nM.

`COCC(NC(=O)c1c(C)oc2ccc(OCc3scnc3C)cc12)C(N)=O` (single isomer, unassigned) [467 - En 1] showed an IC50 (cpds. 400-499) of no more than 1000 nM.

Where the note is “cpds. 400-499”, `COCC(C)(NC(=O)c1c(C)oc2ccc(OCc3scnc3C)cc12)C(N)=O` (single isomer, unassigned) [468 - En 1] returned an IC50 of no more than 1000 nM.

Where the note is “cpds. 400-499”, `Cc1ncc(COc2ccc3oc(C)c(C(=O)NC(CO)CN4CCOCC4)c3c2)s1` (single isomer, unassigned) [487 - En 1] yielded an IC50 of 1000 to 20000 nM.

For the setting “cpds. 400-499”, `Cc1ncsc1COc1ccc2oc(C)c(C(=O)NC(CO)CN3CCOCC3)c2c1` (single isomer, unassigned) [488 - En 1] yielded an IC50 of no more than 1000 nM.

Where the note is “cpds. 400-499”, `Cc1ncsc1COc1ccc2oc(C)c(C(=O)NC(CO)CN3CCOCC3)c2c1` (single isomer, unassigned) [488 - En 2] displayed an IC50 of 1000 to 20000 nM.

Compound `Cc1oc2ccc(OCc3cccnc3C(F)(F)F)cc2c1C(=O)NC1(CO)CCCNC1=O` (single isomer, unassigned) [510 - En 1] yielded a half-inhibitory concentration (IC50) (cpds. 500-599) of no more than 1000 nM.

Under “cpds. 500-599”, `Cc1ncc(COc2ccc3oc(C)c(C(=O)NC4(CO)CCCNC4=O)c3c2)o1` (single isomer, unassigned) [511 - En 1] gave an IC50 of no more than 1000 nM.

Consider `Cc1ncc(COc2ccc3oc(C)c(C(=O)NC4(CO)CCCNC4=O)c3c2)o1` (single isomer, unassigned) [511 - En 2], for which the concentration for half-maximal inhibition (IC50) (cpds. 500-599) lay in the range of 1000 to 20000 nM.

For `Cc1ncccc1COc1ccc2oc(C)c(C(=O)NC3(CO)CCCNC3=O)c2c1` (single isomer, unassigned) [512 - En 1], the IC50 (cpds. 500-599) was no more than 1000 nM.

On to `Cc1ncsc1COc1ccc2oc(C)c(C(=O)NC3(CO)CCCNC3=O)c2c1` (single isomer, unassigned) [513 - En 1], for which the IC50 (cpds. 500-599) was no more than 1000 nM.

`Cc1ccc(COc2ccc3oc(C)c(C(=O)NC4(CO)CCCNC4=O)c3c2)cn1` (single isomer, unassigned) [514 - En 1] displayed a 50% inhibitory concentration (IC50) (cpds. 500-599) of no more than 1000 nM.

In turn, `Cc1ncccc1COc1ccc2oc(C)c(C(=O)NC3(CO)CCNC3=O)c2c1` (single isomer, unassigned) [516 - En 1] gave an IC50 (cpds. 500-599) of no more than 1000 nM.

Turning to `Cc1ncsc1COc1ccc2oc(C)c(C(=O)NC3(CO)CCNC3=O)c2c1` (single isomer, unassigned) [518 - En 1], the IC50 (cpds. 500-599) is no more than 1000 nM.

Regarding `Cc1ccc(COc2ccc3oc(C)c(C(=O)NC4(CO)CCNC4=O)c3c2)cn1` (single isomer, unassigned) [519 - En 1], the IC50 (cpds. 500-599) is no more than 1000 nM.

Where the note is “cpds. 500-599”, `Cc1oc2ccc(OCc3ccccn3)cc2c1C(=O)NC1(CO)CCNC1=O` (single isomer, unassigned) [520 - En 1] gave an IC50 of no more than 1000 nM.

Under “cpds. 500-599”, `Cc1oc2ccc(OCc3ccccn3)cc2c1C(=O)NC1(CO)CCNC1=O` (single isomer, unassigned) [520 - En 2] yielded an IC50 of no more than 1000 nM.

Under “cpds. 500-599”, `Cc1oc2ccc(OCc3cccnc3O)cc2c1C(=O)NC1(CO)CCNC1=O` (single isomer, unassigned) [521 - En 1] showed an IC50 of no more than 1000 nM.

In turn, `Cc1oc2ccc(OCc3cccnc3O)cc2c1C(=O)NC1(CO)CCNC1=O` (single isomer, unassigned) [521 - En 2] yielded an IC50 (cpds. 500-599) of 1000 to 20000 nM.

As usually defined, the IC50 is the point on the concentration scale where inhibition reaches its midpoint. Read a low IC50 as greater potency.
